The source of these data is PMC8112869, “Therapeutic inhibition of keratinocyte TRPV3 sensory channel by local anesthetic dyclonine” (eLife, 2021).

Usually IC50 stands for the concentration that gives 50% inhibition.

The target in the experiment is T1, TRPV3 (Mus musculus, UniProt Q8K424).
T1 construct: expressed in transfected cells; host or cells: HEK 293T
T1 sequence (Q8K424 1-791): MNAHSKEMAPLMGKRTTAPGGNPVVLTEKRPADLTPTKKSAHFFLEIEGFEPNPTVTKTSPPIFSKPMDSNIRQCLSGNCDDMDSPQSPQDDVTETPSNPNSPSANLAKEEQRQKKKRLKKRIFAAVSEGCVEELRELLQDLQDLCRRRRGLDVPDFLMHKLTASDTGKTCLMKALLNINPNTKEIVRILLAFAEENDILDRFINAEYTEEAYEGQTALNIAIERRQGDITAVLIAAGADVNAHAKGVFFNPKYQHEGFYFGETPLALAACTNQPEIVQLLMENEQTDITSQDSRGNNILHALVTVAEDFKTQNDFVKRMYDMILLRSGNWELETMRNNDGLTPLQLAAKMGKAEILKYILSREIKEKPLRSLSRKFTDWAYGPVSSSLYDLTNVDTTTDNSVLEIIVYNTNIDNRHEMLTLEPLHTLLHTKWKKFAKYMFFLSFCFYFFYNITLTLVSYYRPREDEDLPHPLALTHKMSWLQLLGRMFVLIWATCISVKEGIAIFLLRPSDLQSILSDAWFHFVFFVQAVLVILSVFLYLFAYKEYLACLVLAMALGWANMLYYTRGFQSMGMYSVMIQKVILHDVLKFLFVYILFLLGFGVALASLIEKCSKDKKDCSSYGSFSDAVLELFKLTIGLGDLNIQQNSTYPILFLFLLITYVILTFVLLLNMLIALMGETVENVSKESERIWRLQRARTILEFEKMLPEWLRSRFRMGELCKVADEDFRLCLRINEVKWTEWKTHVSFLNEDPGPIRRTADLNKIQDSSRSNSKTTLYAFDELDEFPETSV
The experiment in a line: Whole-cell recording of carvacrol-evoked TRPV3 currents in HEK 293T cells. The experiment is classed as cell-based. The text has this:
Conventional whole-cell and excised patch-clamp recording methods were used. For the recombinant expressing system, green fluorescent EGFP was used as a surface marker for gene expression. Recording pipettes were pulled from borosilicate glass capillaries (World Precision Instruments) and fire-polished to a resistance between 2 and 4 MΩ when filled with internal solution containing (in mM) 140 CsCl, 2.0 MgCl2, 5 EGTA, and 10 HEPES, pH 7.4 (adjusted with CsOH). Bath solution contained (in mM): 140 NaCl, 5 KCl, 3 EGTA, and 10 HEPES, pH 7.4 adjusted with NaOH. For recordings in keratinocytes, the bath saline consisted of (in mM) 140 NaCl, 5 KCl, 2 MgCl2, 2 CaCl2, 10 glucoses, and 10 HEPES, pH 7.4 adjusted with NaOH, and the pipette solution contained (in mM) 140 CsCl, 5 EGTA, and 10 HEPES, pH 7.3 adjusted with CsOH. […] For a subset of recordings, currents were amplified using an Axopatch 200B amplifier (Molecular Devices, Sunnyvale, CA) and recorded through a BNC-2090/MIO acquisition system (National Instruments, Austin, TX) using QStudio developed by Dr. Feng Qin at State University of New York at Buffalo. […] As determined by the conductance tests, the solution around a patch under study was fully controlled by the application of a flow rate of 100 μl/min or greater. […]

For the molecule `CCCCOc1ccc(C(=O)CCN2CCCCC2)cc1` [dyclonine], under “500 μM carvacrol, after sensitization by 300 μM 2-APB, –60 mV, read-out: IC50 for inhibition of carvacrol-evoked TRPV3 currents”, the half-inhibitory concentration (IC50) stood at 3.5 ± 0.34 µM. Also, the “Hill coefficient nH” value (carvacrol-evoked) was determined as 2.1 ± 0.41.
